Data published in ChEMBL document CHEMBL4814020, “Nonbisphosphonate inhibitors of Plasmodium falciparum FPPS/GGPPS” (Bioorg Med Chem Lett, 2021).
Converted amounts (≈) assume the structure as drawn.

How the values were obtained:
[1] = Inhibition of recombinant Plasmodium falciparum N-terminal His6-tagged GGPPS expressed in Escherichia coli expression system assessed as reduction in pyrophosphate release using GPP as substrate incubated for 30 mins followed by substrate addition by PPiLight detection reagent based luminescence assay
[2] = molecular target: T1, Geranylgeranyl pyrophosphate synthase (Homo sapiens, UniProt O95749); experiment: Inhibition of recombinant human N-terminal His6-tagged GGPPS assessed as reduction in pyrophosphate release using GPP as substrate upto 200 uM incubated for 30 mins followed by substrate addition by PPiLight detection reagent based luminescence assay; details: 0.5 h
T1 sequence (O95749 whole entry): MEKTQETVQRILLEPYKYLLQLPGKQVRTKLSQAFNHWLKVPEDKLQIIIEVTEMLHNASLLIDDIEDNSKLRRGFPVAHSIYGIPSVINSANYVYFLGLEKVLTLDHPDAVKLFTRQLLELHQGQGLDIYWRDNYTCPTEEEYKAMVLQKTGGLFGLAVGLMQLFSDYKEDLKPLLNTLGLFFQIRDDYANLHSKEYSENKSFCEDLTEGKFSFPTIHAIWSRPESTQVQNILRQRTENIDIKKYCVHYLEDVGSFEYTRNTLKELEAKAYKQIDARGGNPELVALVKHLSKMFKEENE

[3] = molecular target: T2, Farnesyl pyrophosphate synthase (Homo sapiens, UniProt P14324); experiment: Inhibition of recombinant human N-terminal His6-tagged FPPS assessed as reduction in pyrophosphate release using GPP as substrate upto 200 uM incubated for 30 mins followed by substrate addition by PPiLight detection reagent based luminescence assay; details: 0.5 h
T2 sequence (P14324 whole entry): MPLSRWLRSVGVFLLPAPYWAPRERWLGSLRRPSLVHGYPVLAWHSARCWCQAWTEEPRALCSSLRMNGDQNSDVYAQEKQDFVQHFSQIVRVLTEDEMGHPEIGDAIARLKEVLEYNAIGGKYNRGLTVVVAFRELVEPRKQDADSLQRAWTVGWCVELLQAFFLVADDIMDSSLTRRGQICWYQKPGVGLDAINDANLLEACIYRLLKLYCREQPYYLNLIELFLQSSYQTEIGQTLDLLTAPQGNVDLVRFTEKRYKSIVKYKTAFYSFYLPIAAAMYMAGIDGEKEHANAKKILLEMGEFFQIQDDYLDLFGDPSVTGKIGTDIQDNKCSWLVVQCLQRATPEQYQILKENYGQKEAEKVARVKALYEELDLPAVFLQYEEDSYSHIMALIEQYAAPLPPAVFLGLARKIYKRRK

Plasmodium falciparum = experiment: Antimalarial activity against Plasmodium falciparum infected in human RBC assessed as reduction in parasite growth measured after 72 hrs by flow cytometry analysis; type: functional, organism-based; details: Erythrocyte
[4] = Lipophilicity, logD of the compound in octanol-buffer at pH 7.4 measured after 18 hrs under shaking condition by reverse phase HPLC-MS analysis; type: physicochemical
[5] = Metabolic stability in human liver microsomes assessed as intrinsic clearance; type: ADME, Microsome; details: read-out: CLH
[6] = Metabolic stability in mouse liver microsomes assessed as intrinsic clearance; type: ADME, Microsome; details: read-out: CLH
MDR1 [7] = experiment: Apparent permeability in pig LLC-PK1 cells expressing MDR1 measured upto 360 mins; type: ADME, cell-based, Sus scrofa
MDR1 [8] = experiment: Efflux ratio of apparent permeability in pig LLC-PK1 cells expressing MDR1 measured upto 360 mins; type: ADME, cell-based, Sus scrofa
[9] = Kinetic solubility of compound; type: physicochemical; details: read-out: Kinetic_solubility
[10] = Fraction unbound in iv dosed C57BL/6J mouse; type: ADME, organism-based; details: in vivo
[11] = Clearance in iv dosed C57BL/6J mouse; type: ADME, organism-based; details: in vivo
[12] = MRT in iv dosed C57BL/6J mouse; type: ADME, organism-based; details: in vivo
[13] = Volume of distribution in iv dosed C57BL/6J mouse; type: ADME, organism-based; details: in vivo
[14] = AUC in iv dosed C57BL/6J mouse; type: ADME, organism-based; details: in vivo

CC1CCN(CCCNC(=O)c2cnc(-c3ccccc3)s2)C1 (stereo not drawn)
IC50 [1]: 3150 nM
inhibition (INH) [2]: Not Active
inhibition (INH) [3]: Not Active

O=C(NCCCN1CCCCCC1)c1cnc(-c2ccccc2)s1
IC50 [1]: 800 nM
inhibition (INH) [2]: Not Active
inhibition (INH) [3]: Not Active

O=C(NCCCN1CCCC1)c1cnc(-c2ccccc2)s1
IC50 [1]: 3100 nM
inhibition (INH) [2]: Not Active
inhibition (INH) [3]: Not Active

Cn1c(-c2ccccc2)cnc1C(=O)NCCCN1CCCCCC1
IC50 [1]: 13000 nM
inhibition (INH) [2]: Not Active
inhibition (INH) [3]: Not Active

COC1CCN(CCCNC(=O)c2cnc(-c3ccccc3)s2)CC1
IC50 [1]: 6060 nM
inhibition (INH) [2]: Not Active
inhibition (INH) [3]: Not Active

O=C(NCCCN1CCCCCC1=O)c1cnc(-c2ccccc2)s1
IC50 [1]: > 10000 nM
inhibition (INH) [2]: Not Active
inhibition (INH) [3]: Not Active

O=C(CCCN1CCCCCC1)Nc1cnc(-c2ccc(F)c(F)c2)s1
IC50 [1]: 1050 nM
IC50 (Plasmodium falciparum): 40 nM
logD at 18 h [4]: 2.3
microsomal CLint [5]: 42 µL/min/mg
microsomal CLint [6]: 10 µL/min/mg
Papp at 6 h (MDR1 [7]): 5.2 ×10⁻⁶ cm/s
efflux ratio at 6 h (MDR1 [8]): 1.1
solubility kinetic [9]: > 94 µg/mL
inhibition (INH) [2]: Not Active
inhibition (INH) [3]: Not Active

O=C(NCCCN1CCCCCC1)c1nnc(-c2ccccc2)s1
IC50 [1]: 1040 nM
inhibition (INH) [2]: Not Active
inhibition (INH) [3]: Not Active

O=C(CCCN1CCCCCC1)Nc1cnc(-c2cccc(F)c2)s1
IC50 [1]: 1420 nM
inhibition (INH) [2]: Not Active
inhibition (INH) [3]: Not Active

O=C(NCCCN1CCCCCC1)c1cc(-c2ccccc2)ccn1
IC50 [1]: 6080 nM
inhibition (INH) [2]: Not Active
inhibition (INH) [3]: Not Active

Cc1nc(C(=O)NCCCN2CCCCCC2)sc1-c1ccccc1
IC50 [1]: 1030 nM
inhibition (INH) [2]: Not Active
inhibition (INH) [3]: Not Active

O=C(CCCN1CCCCC1)Nc1cnc(-c2ccc(F)cc2)s1
IC50 [1]: 1610 nM
IC50 (Plasmodium falciparum): 73 nM
logD at 18 h [4]: 1.81
microsomal CLint [5]: 15 µL/min/mg
microsomal CLint [6]: 14 µL/min/mg
Papp at 6 h (MDR1 [7]): 10.5 ×10⁻⁶ cm/s
efflux ratio at 6 h (MDR1 [8]): 1
solubility kinetic [9]: > 94 µg/mL
inhibition (INH) [2]: Not Active
inhibition (INH) [3]: Not Active

Cc1c(C(=O)NCCCN2CCCCCC2)noc1-c1ccccc1
IC50 [1]: 2030 nM
inhibition (INH) [2]: Not Active
inhibition (INH) [3]: Not Active

O=C(CCCN1CCCCCC1)Nc1cnc(-c2ccccc2)s1
IC50 [1]: 1830 nM
inhibition (INH) [2]: Not Active
inhibition (INH) [3]: Not Active

O=C(NCCCN1CCOCC1)c1cnc(-c2ccccc2)s1
IC50 [1]: 12000 nM
inhibition (INH) [2]: Not Active
inhibition (INH) [3]: Not Active

O=C(NCCCN1CCCCCC1)c1cc(-c2ccccc2)on1
IC50 [1]: 1800 nM
inhibition (INH) [2]: Not Active
inhibition (INH) [3]: Not Active

CN(C)CCCNC(=O)c1cnc(-c2ccccc2)s1
IC50 [1]: 6000 nM
inhibition (INH) [2]: Not Active
inhibition (INH) [3]: Not Active

CC1CCCN1CCCNC(=O)c1cnc(-c2ccccc2)s1 (stereo not drawn)
IC50 [1]: > 10000 nM
inhibition (INH) [2]: Not Active
inhibition (INH) [3]: Not Active

O=C(NCCCN1CCCCCC1)c1nnc(-c2ccccc2)o1
IC50 [1]: 8120 nM
inhibition (INH) [2]: Not Active
inhibition (INH) [3]: Not Active

Cc1nc(-c2ccccc2)sc1C(=O)NCCCN1CCCCCC1
IC50 [1]: 3790 nM
inhibition (INH) [2]: Not Active
inhibition (INH) [3]: Not Active

O=C(CCCN1CCCCCC1)Nc1cnc(-c2ccc(F)cc2)s1
IC50 [1]: 1330 nM
IC50 (Plasmodium falciparum): 37 nM
logD at 18 h [4]: 1.93
microsomal CLint [5]: 29 µL/min/mg
microsomal CLint [6]: 18 µL/min/mg
Papp at 6 h (MDR1 [7]): 9.5 ×10⁻⁶ cm/s
efflux ratio at 6 h (MDR1 [8]): 1.1
solubility kinetic [9]: > 97 µg/mL
inhibition (INH) [2]: Not Active
inhibition (INH) [3]: Not Active

O=C(NCCCN1CCCCC1)c1cnc(-c2ccccc2)s1
IC50 [1]: 2150 nM
inhibition (INH) [2]: Not Active
inhibition (INH) [3]: Not Active

O=C(CCCN1CCCCCC1)Nc1cnc(-c2ccccc2F)s1
IC50 [1]: 950 nM
inhibition (INH) [2]: Not Active
inhibition (INH) [3]: Not Active

O=C(NCCCN1CCC(F)CC1)c1cnc(-c2ccccc2)s1
IC50 [1]: 2790 nM
inhibition (INH) [2]: Not Active
inhibition (INH) [3]: Not Active

O=C(NCCCN1CCCCCC1)c1ncc(-c2ccccc2)o1
IC50 [1]: 2380 nM
inhibition (INH) [2]: Not Active
inhibition (INH) [3]: Not Active

COc1cc(-c2ncc(NC(=O)CCCN3CCCCCC3)s2)ccc1F
IC50 [1]: 500 nM
inhibition (INH) [2]: Not Active
inhibition (INH) [3]: Not Active

O=C(NCCCN1CCCCCC1)c1ncc(-c2ccccc2)s1
IC50 [1]: 960 nM
inhibition (INH) [2]: Not Active
inhibition (INH) [3]: Not Active

O=C(CCCN1CCCCCC1)Nc1nnc(-c2ccc(F)cc2)s1
IC50 [1]: 1800 nM
IC50 (Plasmodium falciparum): 72 nM
logD at 18 h [4]: 1.97
microsomal CLint [5]: 39 µL/min/mg
microsomal CLint [6]: < 1 µL/min/mg
Papp at 6 h (MDR1 [7]): 12.6 ×10⁻⁶ cm/s
efflux ratio at 6 h (MDR1 [8]): 0.9
solubility kinetic [9]: > 91 µg/mL
inhibition (INH) [2]: Not Active
inhibition (INH) [3]: Not Active

O=C(CCCN1CCCOCC1)Nc1cnc(-c2ccc(F)cc2F)s1
IC50 [1]: 1940 nM
IC50 (Plasmodium falciparum): 74 nM
logD at 18 h [4]: 2.41
microsomal CLint [5]: < 1 µL/min/mg
microsomal CLint [6]: 22 µL/min/mg
Papp at 6 h (MDR1 [7]): 9.2 ×10⁻⁶ cm/s
efflux ratio at 6 h (MDR1 [8]): 1.5
solubility kinetic [9]: > 100 µg/mL
fraction unbound [10]: 0.09
clearance [11]: 25.3 mL/min/kg
MRT [12]: 2.63 h
Vd [13]: 4 L/kg
AUC [14]: 65.8 ng·h/mL
inhibition (INH) [2]: Not Active
inhibition (INH) [3]: Not Active

O=C(NCCCN1CCCCCC1)c1ccc(-c2ccccc2)s1
IC50 [1]: 1340 nM
inhibition (INH) [2]: Not Active
inhibition (INH) [3]: Not Active

O=C(CCCN1CCCCCC1)Nc1cnc(-c2ccc(F)cc2F)s1
IC50 [1]: 930 nM
IC50 (Plasmodium falciparum): 38 nM
logD at 18 h [4]: 2.11
microsomal CLint [5]: 42 µL/min/mg
microsomal CLint [6]: 24 µL/min/mg
Papp at 6 h (MDR1 [7]): 8.7 ×10⁻⁶ cm/s
efflux ratio at 6 h (MDR1 [8]): 0.8
solubility kinetic [9]: > 97 µg/mL
inhibition (INH) [2]: Not Active
inhibition (INH) [3]: Not Active

O=C(NCCCN1CCCCCC1)c1cc(-c2ccccc2)cs1
IC50 [1]: 2480 nM
inhibition (INH) [2]: Not Active
inhibition (INH) [3]: Not Active

Cn1c(=O)c2cc(C(=O)NCCCN3CCCCCC3)sc2c2ccccc21
IC50 [1]: 820 nM
IC50 (Plasmodium falciparum): 90 nM
logD at 18 h [4]: 1.89
microsomal CLint [5]: < 1 µL/min/mg
microsomal CLint [6]: 483 µL/min/mg
Papp at 6 h (MDR1 [7]): 4.1 ×10⁻⁶ cm/s
efflux ratio at 6 h (MDR1 [8]): 6.8
solubility kinetic [9]: 69 µg/mL (≈ 174 µM)
inhibition (INH) [2]: Not Active
inhibition (INH) [3]: Not Active
